Assay results from ChEMBL document CHEMBL4261632, “Synthesis of five libraries of 6,5-fused heterocycles to establish the importance of the heterocyclic core for antiplasmodial activity” (Bioorg Med Chem, 2018).

System: Plasmodium falciparum
Assay: Antiplasmodial activity against chloroquine-sensitive Plasmodium falciparum NF54
Assay type: functional, organism-based
Details: not given; call rule not given here

With Cl.O=C(OCCc1ccccc1)c1nc2c(OC3CCNCC3)cccc2o1 the EC50 was “Not Active”.
In the case of Cl.O=C(OCc1cccc2ccccc12)c1nc2c(OC3CCNCC3)cccc2o1, the EC50 is reported as “Not Active”.
For Cl.O=C(NCCc1ccccc1)c1nc2c(OC3CCNCC3)cccc2o1, the EC50 was “Not Active”.
For Cl.O=C(NCc1ccccc1)c1nc2c(OC3CCNCC3)cccc2o1, the EC50 was “Not Active”.
With Cl.O=C(OCc1ccccc1)c1nc2c(OC3CCNCC3)cccc2o1 the EC50 was “Not Active”.

Same assay, conditions: Plasmodium falciparum, NF54; read-out: EC50

Point of comparison: Cc1c(C(=O)NCc2ccccc2)[nH]c2cccc(OC3CCNCC3)c12, EC50 6.11 µM. Against it:
- O=C(NCc1ccccc1)c1cc2c(OC3CCNCC3)cccc2[nH]1 — 1.6-fold lower, 3.74 µM
- O=C(OCCc1ccccc1)c1cc2c(OC3CCNCC3)cccc2[nH]1 — within 1.5-fold, 6.53 µM
- Cc1c(C(=O)OCc2cccc3ccccc23)[nH]c2cccc(OC3CCNCC3)c12 — 8.3-fold lower, 0.74 µM
- Cn1c(C(=O)OCc2cccc3ccccc23)nc2cccc(OC3CCNCC3)c21 — within 1.5-fold, 7.37 µM
- O=C(NCc1cccc2ccccc12)c1nc2c(OC3CCNCC3)cccc2o1 — 3.1-fold lower, 1.96 µM
- O=C(OCc1ccccc1)c1cc2c(OC3CCNCC3)cccc2s1 — within 1.5-fold, 5.69 µM
- O=C(NCCc1ccccc1)c1cc2c(OC3CCNCC3)cccc2[nH]1 — 2-fold lower, 3.1 µM
- O=C(OCc1ccccc1)c1cc2c(OC3CCNCC3)cccc2[nH]1 — 1.8-fold lower, 3.39 µM
- Cc1c(C(=O)OCc2ccccc2)[nH]c2cccc(OC3CCNCC3)c12 — 11-fold lower, 0.56 µM
- O=C(OCc1cccc2ccccc12)c1cc2c(OC3CCNCC3)cccc2[nH]1 — 7.4-fold lower, 0.83 µM
- O=C(OCc1cccc2ccccc12)c1cc2c(OC3CCNCC3)cccc2s1 — 3.2-fold lower, 1.9 µM
- O=C(NCc1cccc2ccccc12)c1cc2c(OC3CCNCC3)cccc2s1 — 8.6-fold lower, 0.71 µM
- Cn1c(C(=O)NCCc2ccccc2)nc2cccc(OC3CCNCC3)c21 — within 1.5-fold, 8.69 µM
- C[C@H]1[C@H](OC(=O)CCC(=O)O)O[C@@H]2O[C@@]3(C)CC[C@H]4[C@H](C)CC[C@@H]1[C@@]24OO3 [ARTESUNATE] — 650-fold lower, 0.00941 µM
- Cn1c(C(=O)NCc2ccccc2)nc2cccc(OC3CCNCC3)c21 — within 1.5-fold, 8.8 µM
- Cn1c(C(=O)OCc2ccccc2)nc2cccc(OC3CCNCC3)c21 — 2.2-fold higher, 13.3 µM
- Cc1c(C(=O)NCc2cccc3ccccc23)[nH]c2cccc(OC3CCNCC3)c12 — 8.3-fold lower, 0.74 µM
- CCN(CC)CCCC(C)Nc1ccnc2cc(Cl)ccc12 (configuration not stated) [CHLOROQUINE] — 470-fold lower, 0.013 µM
- Cn1c(C(=O)OCCc2ccccc2)nc2cccc(OC3CCNCC3)c21 — 1.8-fold higher, 11.1 µM
- O=C(NCc1cccc2ccccc12)c1cc2c(OC3CCNCC3)cccc2[nH]1 — 6.8-fold lower, 0.9 µM
- O=C(NCCc1ccccc1)c1cc2c(OC3CCNCC3)cccc2s1 — 2-fold lower, 3.01 µM
- O=C(NCc1ccccc1)c1cc2c(OC3CCNCC3)cccc2s1 — 1.8-fold lower, 3.48 µM
- Cc1c(C(=O)OCCc2ccccc2)[nH]c2cccc(OC3CCNCC3)c12 — 1.6-fold lower, 3.9 µM
- Cc1c(C(=O)NCCc2ccccc2)[nH]c2cccc(OC3CCNCC3)c12 — 1.8-fold lower, 3.4 µM
- Cn1c(C(=O)NCc2cccc3ccccc23)nc2cccc(OC3CCNCC3)c21 — 5.3-fold lower, 1.15 µM
- O=C(OCCc1ccccc1)c1cc2c(OC3CCNCC3)cccc2s1 — within 1.5-fold, 5.87 µM
